In patent publication US20100249019A1, “USE OF A PEPTIDE AS A THERAPEUTIC AGENT” (priority 2007, published 2010):
No end group written: not given here.

Key:
[1] = test system: RAW 264.7 cells; experiment: Phagocytosis assay (Fluorescein-labeled Escherichia coli, flow cytometry); conditions: 10 micrograms per ml; 30 min preincubation, 60 min ingestion
[2] = test system: HUVEC; experiment: Endothelial tube formation assay; assay type: cell-based, human; conditions: 10 micrograms per ml; 20 hours
Experimental: The endothelial tube formation assay is based on the ability of endothelial cells to form three-dimensional capillary-like tubular structures when cultured on a gel of basement membrane extract. The endothelial tube formation assay represents a powerful model for studying inhibition and induction of angiogenesis. Pre-labeled HUVEC with Calcein AM were seeded in a 96-well culture plate coated with extracellular metrix (Chemicon international Cat. ECM625) and treated with test peptides—10 micrograms per ml—in full growth medium. Positive control wes vehicle only. The endothelial cells were allowed to form tubes foe 20 hours and were then examined under an inverted fluorescent microscope. Duplicate wells for each treatment were photographed and quantitatevily analyzed for an average tubule length using image analysis software ImageProPlus. Raw data were expressed as average tubule lengths in pixels±standard deviation. Statistic p values were computed using the Student's t-test.

[3] = test system: murine spleen cells; experiment: Th1/Th2 cytokine profiling assay (Ovalbumin-restimulated spleen cells, CBA kit); assay type: cell-based, Balb/c mice; conditions: 10 micrograms per ml; 72 hours
Text: The Balb/c mice (originated in 1923, it is a popular strain and is used in many different research disciplines. Also classified as an inbred from the production of 20 or more successive brother-sister matings, the Balb/c mouse is albino and small in size) were immunized on Days 1, 15, and 29 with Ovalbumin (Ovalbumin is the main protein found in egg white, commonly used to stimulate an immunological reaction in test animals) in PBS (5 micrograms/injection). On day 50, spleens of the mice were harvested (3 weeks after last boost with Ovalbumin). […] Thereafter, additional Ovalbumin was added to the cells at 10 micrograms/ml for in vitro restimulation of the cells. 72 hours later, cell supernatants were harvested and assayed using the Becton Dickinson Mouse Th1/Th2 Cytokine CBA Kit.

[4] = test system: Primary Human endothelial cells (HUVEC); experiment: Endothelial cell migration assay; assay type: cell-based; conditions: 10 micrograms per ml; 22 hours
[5] = test system: hepatitis B virus (HBV) ayw strain; experiment: HBV experimental assay system (HepG2-2.2.15, TaqMan PCR of HBV DNA); assay type: cell-based; conditions: 10 micrograms per ml; six days; HBV DNA vs virus control
[6] = test system: HCMV strain AD169; experiment: HCMV plaque formation assay in MRC-5 cells; conditions: 10 micrograms per ml, 7-10 days

Val-Pro-Leu-Pro-Ala-Gly-Gly-Gly-Thr-Val-Leu-Thr-Lys-Met-Tyr-Pro-Arg-Gly-Asn-His-Trp-Ala-Val-Gly-His-Leu-Met-NH2 (VPLPAGGGTVLTKMYPRGNHWAVGHLM-NH2) [Peptide 2]
induction of phagocytosis as compared to control [1]: 42.9% | inhibition of the tube formation of human endothelial cells [2]: do not inhibit | change of the production of IFN-γ [3]: did not significantly change | change of the production of IL-2 [3]: did not significantly change | change of the production of IL-4 [3]: did not significantly change | change of the production of TNF-alpha [3]: did not significantly change | decrease of the production of IL-5 [3]: 34.0% | induction of the production of IL-2 [3]: 67.3% | inhibition of the migration of human endothelial cells [4]: 26% | inhibition of HBV replication on tested liver cells [5]: 30.6% | inhibition of HCMV plaque formation as compared to the virus control [6]: 4.0%
